Data as given in ChEMBL document CHEMBL3885861, “Open TG-GATES”.

Organism: Rattus norvegicus
Assay: Open TG-GATES - Regimen: Daily Repeat
Type: toxicity, organism-based, Sprague-Dawley
Parameters: regimen Daily Repeat, gender Male, age 6 weeks
Settings: in vivo, po, 1000 mg/kg, route gavage, dose level High; for APTT / Bas / Eos / Fbg / Hb / Ht / Lym / MCH / MCHC / MCV / Mono / Neu / PT / Plat / RBC / Ret / WBC: tissue Blood; for KIDNEY_L / KIDNEY_R / KIDNEY_TOTAL: tissue Kidney; for LIVER: tissue Liver; for A/G / ALP / ALT / AST / BUN / CRE / Ca / Cl / DBIL / GLC / IP / K / LDH / Na / PL / RALB / TBIL / TC / TG / TP / gamma-GTP: tissue Plasma

COC1=CC(=O)C[C@@H](C)[C@]12Oc1c(Cl)c(OC)cc(OC)c1C2=O [GRISEOFULVIN]
TERMINAL_BW (72 h, time 3 day): 225 g
APTT (72 h, time 3 day): 21.1 s
Bas (72 h, time 3 day): 0%
Eos (72 h, time 3 day): 1%
Fbg (72 h, time 3 day): 220.8 mg/dL
Hb (72 h, time 3 day): 13.5 g/dL
Ht (72 h, time 3 day): 39.9%
Lym (72 h, time 3 day): 79.2%
MCH (72 h, time 3 day): 21.2 pg
MCHC (72 h, time 3 day): 33.8%
MCV (72 h, time 3 day): 62.6 fL
Mono (72 h, time 3 day): 2.4%
Neu (72 h, time 3 day): 17%
PT (72 h, time 3 day): 12.5 s
Plat (72 h, time 3 day): 122 x10_4/uL
RBC (72 h, time 3 day): 637.2 x10_4/ul
Ret (72 h, time 3 day): 6.9%
WBC (72 h, time 3 day): 108.3 x10_2/uL
KIDNEY_L (72 h, time 3 day): 1 g
KIDNEY_R (72 h, time 3 day): 1 g
KIDNEY_TOTAL (72 h, time 3 day): 2 g
LIVER (72 h, time 3 day): 11.5 g
A/G (72 h, time 3 day): 1.6
ALP (72 h, time 3 day): 1064.4 IU/L
ALT (72 h, time 3 day): 40.6 IU/L
AST (72 h, time 3 day): 63.8 IU/L
BUN (72 h, time 3 day): 13.8 mg/dL
CRE (72 h, time 3 day): 0.4 mg/dL
Ca (72 h, time 3 day): 10.8 mg/dL
Cl (72 h, time 3 day): 103.6 meq/L
DBIL (72 h, time 3 day): 0.074 mg/dL
GLC (72 h, time 3 day): 213.4 mg/dL
IP (72 h, time 3 day): 7.8 mg/dL
K (72 h, time 3 day): 3.8 meq/L
LDH (72 h, time 3 day): 184.2 IU/L
Na (72 h, time 3 day): 140.2 meq/L
PL (72 h, time 3 day): 125.8 mg/dL
RALB (72 h, time 3 day): 3.4 g/dL
TBIL (72 h, time 3 day): 0.1 mg/dL
TC (72 h, time 3 day): 72.6 mg/dL
TG (72 h, time 3 day): 45 mg/dL
TP (72 h, time 3 day): 5.6 g/dL
gamma-GTP (72 h, time 3 day): 1.4 IU/L
TERMINAL_BW ([…], time 7 day): 266.7 g
TERMINAL_BW ([…], time 14 day): 318.3 g
TERMINAL_BW ([…], time 28 day): 423.7 g
APTT ([…], time 7 day): 21 s
Bas ([…], time 7 day): 0%
Eos ([…], time 7 day): 0.8%
Fbg ([…], time 7 day): 231.6 mg/dL
Hb ([…], time 7 day): 13.3 g/dL
Ht ([…], time 7 day): 38.9%
Lym ([…], time 7 day): 79.2%
MCH ([…], time 7 day): 21.5 pg
MCHC ([…], time 7 day): 34.2%
MCV ([…], time 7 day): 62.9 fL
Mono ([…], time 7 day): 3%
Neu ([…], time 7 day): 16.2%
PT ([…], time 7 day): 12.4 s
Plat ([…], time 7 day): 145.2 x10_4/uL
RBC ([…], time 7 day): 618 x10_4/ul
Ret ([…], time 7 day): 6.6%
WBC ([…], time 7 day): 110.8 x10_2/uL
APTT ([…], time 14 day): 20.2 s
Bas ([…], time 14 day): 0%
Eos ([…], time 14 day): 1%
Fbg ([…], time 14 day): 229.6 mg/dL
Hb ([…], time 14 day): 14.2 g/dL
Ht ([…], time 14 day): 42.1%
Lym ([…], time 14 day): 79.8%
MCH ([…], time 14 day): 21 pg
MCHC ([…], time 14 day): 33.8%
MCV ([…], time 14 day): 62 fL
Mono ([…], time 14 day): 3%
Neu ([…], time 14 day): 15.2%
PT ([…], time 14 day): 12.6 s
Plat ([…], time 14 day): 114.7 x10_4/uL
RBC ([…], time 14 day): 678.4 x10_4/ul
Ret ([…], time 14 day): 2.8%
WBC ([…], time 14 day): 112.6 x10_2/uL
APTT ([…], time 28 day): 24.8 s
Bas ([…], time 28 day): 0%
Eos ([…], time 28 day): 1%
Fbg ([…], time 28 day): 230.8 mg/dL
Hb ([…], time 28 day): 14.6 g/dL
Ht ([…], time 28 day): 43.2%
Lym ([…], time 28 day): 84.4%
MCH ([…], time 28 day): 20.4 pg
MCHC ([…], time 28 day): 33.9%
MCV ([…], time 28 day): 60.1 fL
Mono ([…], time 28 day): 2.4%
Neu ([…], time 28 day): 11.4%
PT ([…], time 28 day): 13 s
Plat ([…], time 28 day): 113.5 x10_4/uL
RBC ([…], time 28 day): 718.4 x10_4/ul
Ret ([…], time 28 day): 3.3%
WBC ([…], time 28 day): 158.4 x10_2/uL
KIDNEY_L ([…], time 7 day): 1.1 g
KIDNEY_R ([…], time 7 day): 1.1 g
KIDNEY_TOTAL ([…], time 7 day): 2.3 g
KIDNEY_L ([…], time 14 day): 1.3 g
KIDNEY_R ([…], time 14 day): 1.3 g
KIDNEY_TOTAL ([…], time 14 day): 2.6 g
KIDNEY_L ([…], time 28 day): 1.6 g
KIDNEY_R ([…], time 28 day): 1.5 g
KIDNEY_TOTAL ([…], time 28 day): 3.1 g
LIVER ([…], time 7 day): 13.5 g
LIVER ([…], time 14 day): 14.6 g
LIVER ([…], time 28 day): 19.4 g
A/G ([…], time 7 day): 1.3
ALP ([…], time 7 day): 845.8 IU/L
ALT ([…], time 7 day): 31.6 IU/L
AST ([…], time 7 day): 56.8 IU/L
BUN ([…], time 7 day): 15.2 mg/dL
CRE ([…], time 7 day): 0.4 mg/dL
Ca ([…], time 7 day): 10.8 mg/dL
Cl ([…], time 7 day): 103.8 meq/L
DBIL ([…], time 7 day): 0.064 mg/dL
GLC ([…], time 7 day): 207 mg/dL
IP ([…], time 7 day): 7.3 mg/dL
K ([…], time 7 day): 3.8 meq/L
LDH ([…], time 7 day): 150.2 IU/L
Na ([…], time 7 day): 142 meq/L
PL ([…], time 7 day): 126.8 mg/dL
RALB ([…], time 7 day): 3.4 g/dL
TBIL ([…], time 7 day): 0.1 mg/dL
TC ([…], time 7 day): 76.4 mg/dL
TG ([…], time 7 day): 45.4 mg/dL
TP ([…], time 7 day): 5.9 g/dL
gamma-GTP ([…], time 7 day): 1.2 IU/L
A/G ([…], time 14 day): 1.4
ALP ([…], time 14 day): 803.4 IU/L
ALT ([…], time 14 day): 32 IU/L
AST ([…], time 14 day): 56 IU/L
BUN ([…], time 14 day): 14.6 mg/dL
CRE ([…], time 14 day): 0.5 mg/dL
Ca ([…], time 14 day): 10.8 mg/dL
Cl ([…], time 14 day): 103 meq/L
DBIL ([…], time 14 day): 0.076 mg/dL
GLC ([…], time 14 day): 205.2 mg/dL
IP ([…], time 14 day): 7.4 mg/dL
K ([…], time 14 day): 4.2 meq/L
LDH ([…], time 14 day): 135.6 IU/L
Na ([…], time 14 day): 140.6 meq/L
PL ([…], time 14 day): 138.6 mg/dL
RALB ([…], time 14 day): 3.4 g/dL
TBIL ([…], time 14 day): 0.1 mg/dL
TC ([…], time 14 day): 81.4 mg/dL
TG ([…], time 14 day): 55.4 mg/dL
TP ([…], time 14 day): 5.9 g/dL
gamma-GTP ([…], time 14 day): 1 IU/L
A/G ([…], time 28 day): 1.3
ALP ([…], time 28 day): 500.8 IU/L
ALT ([…], time 28 day): 39.2 IU/L
AST ([…], time 28 day): 55 IU/L
BUN ([…], time 28 day): 14.8 mg/dL
CRE ([…], time 28 day): 0.5 mg/dL
Ca ([…], time 28 day): 10.5 mg/dL
Cl ([…], time 28 day): 103 meq/L
DBIL ([…], time 28 day): 0.062 mg/dL
GLC ([…], time 28 day): 234.6 mg/dL
IP ([…], time 28 day): 7.3 mg/dL
K ([…], time 28 day): 3.7 meq/L
LDH ([…], time 28 day): 159 IU/L
Na ([…], time 28 day): 140.6 meq/L
PL ([…], time 28 day): 138 mg/dL
RALB ([…], time 28 day): 3.4 g/dL
TBIL ([…], time 28 day): 0.1 mg/dL
TC ([…], time 28 day): 88.6 mg/dL
TG ([…], time 28 day): 38 mg/dL
TP ([…], time 28 day): 6.2 g/dL
gamma-GTP ([…], time 28 day): 0.8 IU/L
